Assay results as given in US10130668B2, “Composition comprising Dendropanax morbifera extract or compound derived therefrom as active ingredient for preventing and treating benign prostatic hyperplasia” (priority 2012, dated 2018).
“And” between values parts separate entries of the source, which are not always exact repeats. Equal entries are not always repeated. “Also recorded” adds a separate entry of the source.

Assays:
[1] = test system: mouse model with benign prostatic hyperplasia; assay: Prostate size in testosterone-induced benign prostatic hyperplasia animal model; assay type: in vivo, Sprague Dawley mice
Description: First of all, the animals used for experiments were 11-week old male Sprague Dawley mice, which were purchased from Damul Science Co. (Daejeon, Republic of Korea). […] As a positive control group, the finasteride (2 mg/kg/day) was used and the Dendropanax morbifera extract was administered for 2 groups (0.5 and 2 mg/kg). 3 weeks after the drug administration, the mice were sacrificed and the results were observed. V, vehicle administration group; CTL, control group; TP, testosterone-propionate administration group; FS, finasteride administration group; […] CMC, carboxymethylcellulose administration group. […] From the previously described experiment schedule, blood and prostate were collected after measuring the body weight and sacrificing on the day after the last day of administration. The weight of removed prostate was measured after removing the surrounding fats and foreign substances and the weight ratio of prostate to body was calculated by the following equation and the result is listed in Table 4.

[2] = test system: PSA (prostate specific antigen); assay: PSA content in blood of benign prostatic hyperplasia animal model (ELISA); assay type: in vivo, Sprague Dawley mice; conditions: TP + drug 2 mg/kg
Excerpt: First of all, the animals used for experiments were 11-week old male Sprague Dawley mice, which were purchased from Damul Science Co. (Daejeon, Republic of Korea). They were provided with hard food and water frequently and were used in experiments after a week of adaptation period for laboratory environment and the animal experiments conducted herein were approved by Chonnam National University animal experiment ethics committee (IRB) (CNU IACUC-YB-R-2012-9).
The male Sprague Dawley mice were divided into the groups such as vehicle control group (V-CTL) that is an experimental group, the group administered with testosterone only (TP-CTL), the group administered with finasteride as positive control for testosterone (TP+FS) and the groups administered with Dendropanax morbifera (TP+DMH), and for each group, n was equal to 4 and overall experimental procedure is as illustrated in Table 3. […] As a positive control group, the finasteride (2 mg/kg/day) was used and the Dendropanax morbifera extract was administered for 2 groups (0.5 and 2 mg/kg).
From the sacrificed mouse in the above example, the plasma was isolated from blood and the content of PSA was determined. PSA measurement was conducted using ELISA (MyBiosource, Arizona, USA) according to the manufacturer's experimental protocol and presented as pg/mL content.

[3] = test system: PSA (prostate specific antigen) mRNA, AR target gene; assay: PSA mRNA expression in LNCaP⋅FGC cells; conditions: 48 hours
Description: For the analysis of anti-androgen activity, the LNCaP⋅FGC cells, an androgen-dependent prostate cancer cell line, were used and the level of mRNA of PSA (Prostate specific antigen), which is one of the AR target genes, in prostate cancer was measured.

With `CC(C)(C)NC(=O)[C@H]1CC[C@H]2[C@@H]3CC[C@H]4NC(=O)C=C[C@]4(C)[C@H]3CC[C@]12C` [FS, finasteride] the Weight of prostate ([1]; TP 3 mg/kg s.c. + drug 2 mg/kg p.o. daily for 3 weeks) was 0.95 ± 0.12 g, the “prostate %/body weight (w/w)” value ([1]; TP + drug 2 mg/kg p.o.) was “*0.22 ± 0.018%” and the “% TP-CTL ratio” value ([1]; TP + drug 2 mg/kg p.o., relative to testosterone-only control) was 74.3% and 74.3 ± 3.2%. The “% V-CTL ratio” value ([1]; TP + drug 2 mg/kg p.o., relative to vehicle control) was 185.7 ± 15.1%, the “% Vehicle control” value ([2]; blood PSA) was 18.7 ± 5.0% and the “% TP control” value ([2]; blood PSA, relative to TP (3 mg/kg) only) was 34.6%. The PSA ([2]; plasma) was “*323.0 ± 85.0 pg/mL”.
For `C=CC(O)C#CC#CC/C=C\CCCCCCCC(=O)O` (stereo not shown) [HS7, (9Z)-16-hydroxy-9,17-octadecadiene-12,14-diynoic acid], the “mRNA expression of PSA” value [3] was “inhibit; also recorded: most effective”.
With `C=C[C@H](O)C#CC#CC=CC(O)CCCCCCCC(=O)O` (stereo partly drawn) [HS3, 9,16S-dihydroxy-10,17-octadecadiene-12,14-diynoic acid] the “mRNA expression of PSA” value [3] was “inhibit”.
For `C=CC(O)C#CC#CC=C[C@H](O)CCCCCCCC(=O)O` (stereo partly drawn) [HS5, 9,16R-dihydroxy-10,17-octadecadiene-12,14-diynoic acid], the “mRNA expression of PSA” value [3] was “inhibit”.
